Experimental data from article PMC9995496, “A screen for MeCP2-TBL1 interaction inhibitors using a luminescence-based assay” (Scientific Reports, 2023).
Where a name gives a salt, the structure may show the parent alone.

System: PRKACA-PRKAR2A interaction (SmBiT-PRKACA / LgBiT-PRKAR2A), protein kinase A
Set-up: NanoLuc complementation counter-screen in cell extract, PRKACA with PRKAR2A, loss of luminescence, detects NanoLuc interference
Conditions: 0.5 h, 20 µM; inhibitor

SMILES	Inh (PKA) [%]
COc1cc2c3cc1Oc1c(OC)c(OC)cc4c1[C@@H](Cc1cccc(c1)Oc1ccc(c(O)c1)C[C@@H]3N(C)CC2)N(C)CC4 [UM0141561:06, Berbamine hydrochloride]	0.4662

Same assay, conditions: counter-screen for NanoLuc interference, 0.5 h, 20 µM, inhibitor, Inh (PKA)

SMILES	Inh (PKA) [%]
CCCCCCOC(=O)NC(=N)c1ccc(NCc2nc3cc(C(=O)N(CCC(=O)OCC)c4ccccn4)ccc3n2C)cc1 [UM0141539:01, Dabigatran etexilate mesylate]	7.702
CC(C)(C)c1nc(-c2cccc(NS(=O)(=O)c3c(F)cccc3F)c2F)c(-c2ccnc(N)n2)s1 [UM0141540:01, Dabrafenib Mesylate (GSK-2118436)]	39.79
CC(=O)O[C@@]12CO[C@@H]1C[C@H](O)[C@@]1(C)C(=O)[C@H](O)C3=C(C)[C@@H](OC(=O)[C@H](O)[C@@H](NC(=O)OC(C)(C)C)c4ccccc4)C[C@@](O)([C@@H](OC(=O)c4ccccc4)[C@H]21)C3(C)C [UM0141543:01, Docetaxel Trihydrate]	1.786
CN1CCc2nc(C(=O)N[C@@H]3C[C@@H](C(=O)N(C)C)CC[C@@H]3NC(=O)C(=O)Nc3ccc(Cl)cn3)sc2C1 [UM0141545:01, Edoxaban]	0.988
CN1CCc2nc(C(=O)N[C@@H]3C[C@@H](C(=O)N(C)C)CC[C@@H]3NC(=O)C(=O)Nc3ccc(Cl)cn3)sc2C1 [UM0141546:01, Edoxaban tosylate monohydrate]	2.853
COc1ccc2c3c1O[C@H]1C[C@@H](O)C=C[C@@]31CCN(C)C2 [UM0141554:01, Galanthamine]	0.2093
CS(=O)(=O)N1CCN(Cc2cc3nc(-c4cccc5[nH]ncc45)nc(N4CCOCC4)c3s2)CC1 [UM0141556:01, GDC-0941 dimethanesulfonate]	7.081
COc1ccc(S(=O)(=O)N(CCO)c2ccccc2CN(C)C/C=C/c2ccc(Cl)cc2)cc1 [UM0141574:01, KN-93]	44.92
O=C(Cc1ccc(-c2ccc(OCCN3CCOCC3)cc2)cn1)NCc1ccccc1 [UM0141575:01, KX2-391 dihydrochloride]	3.66
c1ccc2c(-c3cnn4cc(-c5ccc(N6CCNCC6)cc5)cnc34)ccnc2c1 [UM0141577:01, LDN193189 Hydrochloride]	9.112

Same assay, conditions: counter-screen for NanoLuc interference; 0.5 h, 20 µM; inhibitor

SMILES	Inh (PKA) [%]
C=CC(=O)Nc1cc(-n2c(=O)ccc3cnc4ccc(-c5ccc(NS(C)(=O)=O)cc5)cc4c32)ccc1C [UM0141528:01, BMX-IN-1]	6.521
CC(C)(C)NC(=O)N[C@H](C(=O)N1C[C@H]2[C@@H]([C@H]1C(=O)NC(CC1CCC1)C(=O)C(N)=O)C2(C)C)C(C)(C)C (stereo partly drawn) [UM0141529:01, Boceprevir]	1.202
Cc1c(NC(=O)c2ccc(C(C)(C)C)cc2)cccc1-c1cn(C)c(=O)c(Nc2ccc(C(=O)N3CCOCC3)cc2)n1 [UM0141530:01, CGI-1746]	10.06
C[C@@H](O)[C@H](NC(=O)c1ccc(C#Cc2ccc(CN3CCOCC3)cc2)cc1)C(=O)NO [UM0141531:01, CHIR-090]	2.568
C=CC(=O)Nc1cccc(Nc2nc(Nc3ccc(N4CCN(C(C)=O)CC4)cc3OC)ncc2C(F)(F)F)c1 [UM0141532:01, CO-1686 (AVL-301)]	17.5
O=C(c1ccc(F)c(F)c1Nc1ccc(I)cc1F)N1CC(O)([C@@H]2CCCCN2)C1 [UM0141533:01, Cobimetinib]	6.124
C=C1C(=O)O[C@@H]2/C=C(\C)CC/C=C(\C)CC[C@@H]12 [UM0141534:01, Costunolide]	4.671
COc1cc(/C=C/C(=O)CC(=O)/C=C/c2ccc(O)c(OC)c2)ccc1O [UM0141535:01, Curcumin]	70.09
CN1CCCN(C(=O)c2cccc(-c3ccc(/C=C4/C(=O)Nc5ccc(Cl)cc54)o3)c2)CC1 [UM0141536:01, CX-6258]	48.23
CC(C)(C)NS(=O)(=O)c1cncc(-c2cc(F)c3nc(N)nn3c2)c1 [UM0141537:01, CZC24832]	2.566
S=C(S)O[C@@H]1C[C@@H]2C[C@@H]1[C@H]1CCC[C@@H]21 [UM0141538:01, D609]	17.68
CCN(CC)CCN(Cc1ccc(-c2ccc(C(F)(F)F)cc2)cc1)C(=O)Cn1c(SCc2ccc(F)cc2)nc(=O)c2c1CCC2 [UM0141541:01, Darapladib]	8.505
NC(=O)c1ccccc1Nc1ccnc(Nc2cccc(O)c2)n1 [UM0141542:01, DB07268]	39.9
CCCCc1oc2ccc(NS(C)(=O)=O)cc2c1C(=O)c1ccc(OCCCN(CCCC)CCCC)cc1 [UM0141544:01, Dronedarone]	6.648
COc1cc2c(cc1OC)CN(CCc1ccc(NC(=O)c3cccc4c(=O)c5cccc(OC)c5[nH]c34)cc1)CC2 [UM0141547:01, Elacridar]	22.37
CN1CCC(COc2cnc(-c3cccc(Cn4nc(-c5cccc(C#N)c5)ccc4=O)c3)nc2)CC1 [UM0141548:01, EMD-1214063]	7.378
CCc1c(C(=O)NNC(=O)C(O)c2cc(F)cc(F)c2)ccc(O)c1C (stereo not drawn) [UM0141549:01, EMD638683]	19.67
Cc1ccc(-c2ncc(Cl)cc2-c2ccc(S(C)(=O)=O)cc2)cn1 [UM0141550:01, Etoricoxib]	2.792
Cc1cc([N+](=O)[O-])ccc1NS(=O)(=O)c1cc(Cl)ccc1Cl [UM0141551:01, FH535]	77.24
CC(C)n1c(/C=C/[C@H](O)C[C@H](O)CC(=O)O)c(-c2ccc(F)cc2)c2ccccc21 [UM0141552:01, Fluvastatin]	9.856
CC(C)=CCC[C@]1(C)C=Cc2c(O)c3c(c(CC=C(C)C)c2O1)O[C@]12C(=C[C@@H]4C[C@H]1C(C)(C)O[C@@]2(C/C=C(/C)C(=O)O)C4=O)C3=O [UM0141555:01, Gambogic Acid]	4.588
CC[C@H](C)n1cc(C)c2c(C(=O)NCc3c(C)cc(C)[nH]c3=O)cc(-c3ccc(N4CCNCC4)nc3)cc21 [UM0141557:01, GSK126]	5.02

SMILES	Inh (PKA) [%]
Cn1cc(-c2ccc3c(c2)CCN3C(=O)Cc2cccc(C(F)(F)F)c2)c2c(N)ncnc21 [UM0141558:01, GSK2606414]	15.1
CCCc1cc(C)[nH]c(=O)c1CNC(=O)c1cc(-c2ccnc(N3CCN(C)CC3)c2)cc2c1cnn2C(C)C [UM0141559:01, GSK343]	8.178
N=C(N)NC(=O)Cc1c(Cl)cccc1Cl [UM0141560:01, Guanfacine hydrochloride]	4.541
O=S(=O)(c1cccc2c(O)nccc12)N1CCCNCC1 [UM0141561:01, Hydroxyfasudil hydrochloride]	27.19
O[C@@H](c1cc(C(F)(F)F)nc2c(C(F)(F)F)cccc12)[C@H]1CCCCN1 [UM0141561:02, Mefloquine hydrochloride]	15.66
CCCCS(=O)(=O)N[C@@H](Cc1ccc(OCCCCC2CCNCC2)cc1)C(=O)O [UM0141561:03, Tirofiban hydrochloride monohydrate]	1.888
N#Cc1ccc2[nH]cc(CCCCN3CCN(c4ccc5oc(C(N)=O)cc5c4)CC3)c2c1 [UM0141561:04, Vilazodone Hydrochloride]	10.91
COC(=O)[C@@H](N)CCCNC(=N)N[N+](=O)[O-] [UM0141561:05, L-NAME hydrochloride]	-1.626
NS(=O)(=O)NCCNc1nonc1C(=Nc1ccc(F)c(Br)c1)NO [UM0141562:01, IDO inhibitor 1]	11.46
NS(=O)(=O)NCCNc1nonc1/C(=N/O)Nc1ccc(F)c(Br)c1 [UM0141562:02, INCB-024360]	8.041
COc1cc(N2CCOCC2)ccc1NC(=O)c1csc(-c2cccnc2)n1 [UM0141564:01, IRAK inhibitor 6]	6.368
Cc1ccc2nc(NC(=O)CSc3nc4c(c(=O)n3-c3ccccc3)SCC4)sc2c1 [UM0141565:01, IWP-2]	27.82
C/C(=C\c1csc(C)n1)[C@@H]1C[C@@H]2O[C@]2(C)CCC[C@H](C)[C@H](O)[C@@H](C)C(=O)C(C)(C)[C@@H](O)CC(=O)N1 [UM0141566:01, Ixabepilone]	1.607
COc1cc2ncnc(Nc3ccc(O)cc3)c2cc1OC [UM0141567:01, JANEX-1]	3.268
Cc1cc(NC(=O)c2cccc(NC(=O)/C=C/CN(C)C)c2)ccc1Nc1nccc(-c2cccnc2)n1 [UM0141569:01, JNK-IN-8]	12.62
O=C1NCCSc2c1sc1ccc(O)cc21 [UM0141570:01, kb NB 142-70]	9.964
N=C(N)SCCc1ccc(OCc2ccc([N+](=O)[O-])cc2)cc1 [UM0141571:01, KB-R7943 mesylate]	7.839
COc1cc(Oc2ccnc3cc(OC)c(OC)cc23)ccc1NC(=O)NC(C)c1nccs1 (stereo not drawn) [UM0141572:01, Ki20227]	11.8
COc1ccc(S(=O)(=O)Nc2ccccc2CN(C)C/C=C/c2ccc(Cl)cc2)cc1 [UM0141573:01, KN-92 phosphate]	16.02
CN[C@@H](C)C(=O)N[C@H](C(=O)N1CCC[C@H]1c1nc(C(=O)c2ccc(F)cc2)cs1)C1CCCCC1 [UM0141576:01, LCL161]	0.904
COC(=O)N[C@H](C(=O)N1CC2(CC2)C[C@H]1c1nc(-c2ccc3c(c2)C(F)(F)c2cc(-c4ccc5[nH]c([C@@H]6[C@H]7CC[C@H](C7)N6C(=O)[C@@H](NC(=O)OC)C(C)C)nc5c4)ccc2-3)c[nH]1)C(C)C [UM0141578:01, Ledipasvir]	1.236
